Assay results reported in US5612327A, “1α,24-(OH)2 -cholecalciferol emulsion composition and method for treating psoriasis” (priority 1993, dated 1997).

Assays:
[1] = test system: excised skin (full skin) of Wistar rat; assay: Skin permeability of active ingredient from cream composition; assay type: in vitro ADME; conditions: 0.25 part by weight in bases of Examples 1, 4, 5 and Control Examples 14 to 21; Test Method 3
Text: For the skin, use was made of skin cut off from a dilapidated Wistar rat (full skin=including stratum corneum, epidermis, and dermis). For the reservoir solution, use was made of Hanks buffer (pH=7.4) plus 10% bovine fetal serum. […] (For the method of assay, see below.)

[2] = Solubility and chemical stability of 1α,24-(OH)2 --V.D3; assay type: physicochemical; conditions: non-polar solvent

Row | SMILES | Skin permeability of hydrocortisone acetate (in words) [1] | Solubility (in words) [2]
1 | CC(=O)OCC(=O)[C@@]1(O)CC[C@H]2[C@@H]3CCC4=CC(=O)CC[C@]4(C)[C@H]3[C@@H](O)C[C@@]21C [hydrocortisone acetate] | almost completely unrelated to the weight ratio of the stearyl alcohol and cetyl alcohol | –
2 | C=C1C(=CC=C2CCCC3(C)C2CCC3C(C)CCC(O)C(C)C)CC(O)CC1O (stereo not drawn) [1α,24-(OH)2 --V.D3, 1α,24-dihydroxylcholecalciferol] | – | does not dissolve much at all in a non-polar solvent
